Reference: patent US20220009920A1 (GB005, Inc., priority 2020, published 2022)

How the values were obtained:
Assay in all cases: Large panel kinase profiling
Type in all cases: biochemical
Conditions in all cases: 1 μM test article, 1 mM ATP
[1] = target: PRKCB2/PKCB2 (Homo sapiens, UniProt P05771)
Method in brief: (§1)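 CSox-Sensor fluorescence readout; test article 1 μM, ATP 1 mM, 30° C.; kinetic reads at 1-min intervals, Ex 360/Em 485 nm.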

[2] = target: T1, CAMK2D (Homo sapiens, UniProt Q13557)
T1 construct: AssayQuant Technologies, Inc. (ran the panel)
T1 sequence (Q13557 whole entry, species assumed): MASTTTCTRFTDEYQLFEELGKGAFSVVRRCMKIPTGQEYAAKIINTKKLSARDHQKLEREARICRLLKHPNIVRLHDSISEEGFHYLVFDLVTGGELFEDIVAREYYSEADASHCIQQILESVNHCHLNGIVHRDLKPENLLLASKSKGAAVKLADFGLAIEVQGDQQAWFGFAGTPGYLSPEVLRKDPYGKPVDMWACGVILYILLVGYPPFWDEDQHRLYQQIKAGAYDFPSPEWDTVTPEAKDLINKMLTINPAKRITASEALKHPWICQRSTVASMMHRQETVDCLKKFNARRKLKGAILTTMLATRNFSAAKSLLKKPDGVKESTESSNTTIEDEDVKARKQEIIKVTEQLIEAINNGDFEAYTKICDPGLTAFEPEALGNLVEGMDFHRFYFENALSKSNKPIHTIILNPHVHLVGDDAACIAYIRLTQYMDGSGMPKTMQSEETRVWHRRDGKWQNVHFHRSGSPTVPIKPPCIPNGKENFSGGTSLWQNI
Method in brief: as §1

[3] = target: T2, NEK7 (Homo sapiens, UniProt Q8TDX7)
T2 construct: AssayQuant Technologies, Inc. (assay service)
T2 sequence (Q8TDX7 whole entry, species assumed): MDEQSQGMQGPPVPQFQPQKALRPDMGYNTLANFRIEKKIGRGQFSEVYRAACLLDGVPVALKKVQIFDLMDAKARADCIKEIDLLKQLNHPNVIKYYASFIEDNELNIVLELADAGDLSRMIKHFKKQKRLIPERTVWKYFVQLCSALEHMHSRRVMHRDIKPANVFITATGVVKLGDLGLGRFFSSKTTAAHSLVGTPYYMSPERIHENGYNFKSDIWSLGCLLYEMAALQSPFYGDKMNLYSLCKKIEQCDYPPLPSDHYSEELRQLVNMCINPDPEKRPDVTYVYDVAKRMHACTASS
Method in brief: as §1

[4] = target: T3, MAP4K2/GCK (Homo sapiens, UniProt Q12851)
T3 construct: AssayQuant Technologies, Inc. (service provider)
T3 sequence (Q12851 1-820): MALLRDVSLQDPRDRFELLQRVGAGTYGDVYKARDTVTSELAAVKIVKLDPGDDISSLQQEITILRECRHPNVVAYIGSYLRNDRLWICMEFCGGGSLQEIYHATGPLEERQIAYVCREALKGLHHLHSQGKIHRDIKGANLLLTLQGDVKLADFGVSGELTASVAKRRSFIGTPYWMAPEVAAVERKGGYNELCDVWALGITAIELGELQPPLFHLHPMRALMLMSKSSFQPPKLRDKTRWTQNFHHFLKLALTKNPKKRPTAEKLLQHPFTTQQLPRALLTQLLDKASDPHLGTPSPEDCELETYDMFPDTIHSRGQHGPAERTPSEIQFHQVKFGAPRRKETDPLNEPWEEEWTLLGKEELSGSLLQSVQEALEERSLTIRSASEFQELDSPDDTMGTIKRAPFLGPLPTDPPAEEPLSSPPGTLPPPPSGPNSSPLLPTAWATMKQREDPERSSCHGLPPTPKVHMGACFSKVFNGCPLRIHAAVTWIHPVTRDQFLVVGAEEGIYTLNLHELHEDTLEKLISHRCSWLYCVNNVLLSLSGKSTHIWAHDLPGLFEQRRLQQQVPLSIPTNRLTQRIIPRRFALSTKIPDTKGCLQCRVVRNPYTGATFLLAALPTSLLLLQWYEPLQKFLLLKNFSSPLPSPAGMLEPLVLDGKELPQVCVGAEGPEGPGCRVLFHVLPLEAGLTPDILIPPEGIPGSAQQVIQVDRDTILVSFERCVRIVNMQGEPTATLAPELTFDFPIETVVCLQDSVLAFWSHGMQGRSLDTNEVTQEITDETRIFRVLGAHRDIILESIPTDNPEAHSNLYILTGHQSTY
Method in brief: as §1

[5] = target: LRRK2 (Homo sapiens, UniProt Q5S007)
LRRK2, sequence (Q5S007 whole entry, species assumed): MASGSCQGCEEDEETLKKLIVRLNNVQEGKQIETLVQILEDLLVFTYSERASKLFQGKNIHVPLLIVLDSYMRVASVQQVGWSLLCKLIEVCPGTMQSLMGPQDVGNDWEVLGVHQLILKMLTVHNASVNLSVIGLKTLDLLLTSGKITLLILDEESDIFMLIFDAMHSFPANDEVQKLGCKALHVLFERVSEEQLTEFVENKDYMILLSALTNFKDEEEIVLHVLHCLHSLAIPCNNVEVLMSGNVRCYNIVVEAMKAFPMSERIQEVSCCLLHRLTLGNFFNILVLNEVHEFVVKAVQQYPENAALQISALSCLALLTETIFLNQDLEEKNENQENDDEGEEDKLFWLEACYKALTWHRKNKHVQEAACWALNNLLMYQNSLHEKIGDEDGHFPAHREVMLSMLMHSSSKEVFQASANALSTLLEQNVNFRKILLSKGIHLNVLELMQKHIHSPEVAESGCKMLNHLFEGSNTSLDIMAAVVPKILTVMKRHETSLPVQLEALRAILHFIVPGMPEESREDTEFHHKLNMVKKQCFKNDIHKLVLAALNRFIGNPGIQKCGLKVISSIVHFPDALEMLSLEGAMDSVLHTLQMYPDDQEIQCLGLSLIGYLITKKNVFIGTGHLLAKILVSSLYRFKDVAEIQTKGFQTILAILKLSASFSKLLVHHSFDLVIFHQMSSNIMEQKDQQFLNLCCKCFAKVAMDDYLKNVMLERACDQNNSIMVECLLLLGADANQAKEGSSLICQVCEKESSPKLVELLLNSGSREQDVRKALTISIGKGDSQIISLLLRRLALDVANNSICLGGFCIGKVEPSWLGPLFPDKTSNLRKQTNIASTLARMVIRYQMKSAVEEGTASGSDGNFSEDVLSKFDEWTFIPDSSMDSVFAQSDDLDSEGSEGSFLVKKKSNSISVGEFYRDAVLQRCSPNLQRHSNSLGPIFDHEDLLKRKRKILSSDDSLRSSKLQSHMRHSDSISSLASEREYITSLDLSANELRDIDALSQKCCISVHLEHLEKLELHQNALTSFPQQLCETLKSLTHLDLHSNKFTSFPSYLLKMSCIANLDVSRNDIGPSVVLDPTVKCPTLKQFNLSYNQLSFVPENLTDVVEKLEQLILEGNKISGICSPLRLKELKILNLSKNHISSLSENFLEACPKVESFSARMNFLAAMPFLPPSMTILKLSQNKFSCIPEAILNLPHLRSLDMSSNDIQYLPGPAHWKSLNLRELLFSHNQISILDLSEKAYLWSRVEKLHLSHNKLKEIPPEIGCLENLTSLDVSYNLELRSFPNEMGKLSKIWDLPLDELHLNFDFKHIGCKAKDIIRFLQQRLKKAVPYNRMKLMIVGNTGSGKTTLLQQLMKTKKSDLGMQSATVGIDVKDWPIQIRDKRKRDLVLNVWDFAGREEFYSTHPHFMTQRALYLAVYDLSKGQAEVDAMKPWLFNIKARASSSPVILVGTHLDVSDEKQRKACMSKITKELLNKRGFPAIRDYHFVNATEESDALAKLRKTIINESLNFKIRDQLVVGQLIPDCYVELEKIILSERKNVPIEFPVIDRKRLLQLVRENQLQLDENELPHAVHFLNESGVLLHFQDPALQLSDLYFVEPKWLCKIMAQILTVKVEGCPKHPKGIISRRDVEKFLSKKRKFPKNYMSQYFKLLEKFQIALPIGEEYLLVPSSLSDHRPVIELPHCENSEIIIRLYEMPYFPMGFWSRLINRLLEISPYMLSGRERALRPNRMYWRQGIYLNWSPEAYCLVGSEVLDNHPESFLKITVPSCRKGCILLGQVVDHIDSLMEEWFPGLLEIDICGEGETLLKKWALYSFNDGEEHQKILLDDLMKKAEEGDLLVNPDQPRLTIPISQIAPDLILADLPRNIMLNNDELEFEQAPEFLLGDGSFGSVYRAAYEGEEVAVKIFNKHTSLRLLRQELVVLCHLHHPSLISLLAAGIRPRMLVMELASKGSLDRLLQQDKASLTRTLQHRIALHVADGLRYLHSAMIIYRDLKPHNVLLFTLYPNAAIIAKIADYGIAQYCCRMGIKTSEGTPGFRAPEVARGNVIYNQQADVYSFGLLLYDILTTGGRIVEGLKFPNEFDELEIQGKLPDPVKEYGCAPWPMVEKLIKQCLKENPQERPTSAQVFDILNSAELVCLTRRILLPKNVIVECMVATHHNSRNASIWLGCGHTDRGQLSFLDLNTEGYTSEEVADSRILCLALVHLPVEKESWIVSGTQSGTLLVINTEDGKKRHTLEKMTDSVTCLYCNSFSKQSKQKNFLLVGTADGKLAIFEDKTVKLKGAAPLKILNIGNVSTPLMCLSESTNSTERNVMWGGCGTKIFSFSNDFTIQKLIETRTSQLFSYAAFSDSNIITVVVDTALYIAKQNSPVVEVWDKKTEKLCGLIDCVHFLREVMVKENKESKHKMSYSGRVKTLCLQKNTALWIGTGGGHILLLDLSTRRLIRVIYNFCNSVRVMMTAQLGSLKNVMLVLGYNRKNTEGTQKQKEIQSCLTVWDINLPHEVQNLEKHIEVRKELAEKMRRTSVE
Method in brief: as §1

[6] = target: T4, CDK3/E1 (Homo sapiens, UniProt Q00526)
T4 construct: AssayQuant Technologies, Inc. (ran the panel)
Method in brief: as §1

[7] = target: PRKACB (Homo sapiens, UniProt P22694)
Method in brief: as §1

[8] = target: T5, CLK1 (Homo sapiens, UniProt P49759)
T5 construct: AssayQuant Technologies, Inc. (service laboratory)
T5 sequence (P49759 whole entry): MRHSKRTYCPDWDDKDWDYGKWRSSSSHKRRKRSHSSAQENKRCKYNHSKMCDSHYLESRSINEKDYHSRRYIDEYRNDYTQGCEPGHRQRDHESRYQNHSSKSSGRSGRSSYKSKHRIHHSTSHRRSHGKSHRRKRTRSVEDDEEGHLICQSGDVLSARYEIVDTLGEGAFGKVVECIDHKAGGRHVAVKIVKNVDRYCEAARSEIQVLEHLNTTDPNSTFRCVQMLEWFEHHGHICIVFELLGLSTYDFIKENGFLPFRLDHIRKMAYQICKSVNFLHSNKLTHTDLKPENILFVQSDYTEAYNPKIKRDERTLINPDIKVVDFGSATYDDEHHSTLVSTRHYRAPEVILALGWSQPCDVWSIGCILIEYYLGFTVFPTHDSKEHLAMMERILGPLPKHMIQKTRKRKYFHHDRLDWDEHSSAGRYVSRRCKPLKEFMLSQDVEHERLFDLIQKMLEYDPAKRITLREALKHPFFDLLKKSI
Method in brief: as §1

[9] = target: T6, MAPK11/P38B (Homo sapiens, UniProt Q15759)
T6 construct: AssayQuant Technologies, Inc. (service provider)
T6 sequence (Q15759 whole entry): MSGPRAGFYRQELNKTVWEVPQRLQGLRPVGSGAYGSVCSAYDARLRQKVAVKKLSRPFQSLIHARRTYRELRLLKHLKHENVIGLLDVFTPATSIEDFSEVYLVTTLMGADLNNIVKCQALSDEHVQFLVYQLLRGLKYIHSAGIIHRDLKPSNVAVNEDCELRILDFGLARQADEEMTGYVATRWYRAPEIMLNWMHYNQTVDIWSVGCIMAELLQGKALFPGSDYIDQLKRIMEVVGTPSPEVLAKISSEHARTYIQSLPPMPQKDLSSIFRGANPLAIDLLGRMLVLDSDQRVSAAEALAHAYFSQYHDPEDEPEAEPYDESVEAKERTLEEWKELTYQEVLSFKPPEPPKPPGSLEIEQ
Method in brief: as §1

[10] = target: T7, JAK3(JH1) (Homo sapiens, UniProt P52333)
T7 construct: JAK3(JH1)
T7 sequence (P52333 822-1111 limits assumed, species assumed): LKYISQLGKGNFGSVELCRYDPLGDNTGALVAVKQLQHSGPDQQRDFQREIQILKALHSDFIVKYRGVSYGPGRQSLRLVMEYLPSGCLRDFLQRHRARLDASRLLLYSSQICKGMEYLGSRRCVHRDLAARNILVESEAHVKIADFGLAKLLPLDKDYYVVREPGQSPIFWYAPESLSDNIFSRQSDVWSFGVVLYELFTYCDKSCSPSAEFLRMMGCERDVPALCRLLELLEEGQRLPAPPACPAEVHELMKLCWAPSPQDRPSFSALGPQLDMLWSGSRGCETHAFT
Method in brief: as §1

[11] = target: T8, NEK4 (Homo sapiens, UniProt P51957)
T8 construct: AssayQuant Technologies, Inc. (assay service)
Method in brief: as §1

[12] = target: T9, STK3/MST2 (Homo sapiens, UniProt Q13188)
T9 construct: AssayQuant Technologies, Inc. (contract assay)
T9 sequence (Q13188 1-491): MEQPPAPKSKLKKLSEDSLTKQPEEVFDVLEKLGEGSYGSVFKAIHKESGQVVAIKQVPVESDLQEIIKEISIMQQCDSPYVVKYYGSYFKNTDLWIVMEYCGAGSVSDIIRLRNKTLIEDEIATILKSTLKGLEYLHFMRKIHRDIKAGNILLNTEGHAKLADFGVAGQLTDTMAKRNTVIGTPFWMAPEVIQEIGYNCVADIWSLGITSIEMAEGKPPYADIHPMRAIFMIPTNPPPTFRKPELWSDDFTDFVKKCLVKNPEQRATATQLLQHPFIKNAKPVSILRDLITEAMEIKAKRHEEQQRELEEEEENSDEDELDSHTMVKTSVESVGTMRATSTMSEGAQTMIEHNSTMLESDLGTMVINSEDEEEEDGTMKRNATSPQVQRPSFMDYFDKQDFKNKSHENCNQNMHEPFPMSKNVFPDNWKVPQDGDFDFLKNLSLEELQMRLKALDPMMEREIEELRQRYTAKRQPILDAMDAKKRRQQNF
Method in brief: as §1

[13] = target: AKT1 (Homo sapiens, UniProt P31749)
Method in brief: as §1

[14] = target: AURKB/AURB (Homo sapiens, UniProt Q96GD4)
Method in brief: as §1

[15] = target: T10, CAMKK1 (Homo sapiens, UniProt Q8N5S9)
T10 construct: AssayQuant Technologies, Inc. (ran the panel)
T10 sequence (Q8N5S9 whole entry, species assumed): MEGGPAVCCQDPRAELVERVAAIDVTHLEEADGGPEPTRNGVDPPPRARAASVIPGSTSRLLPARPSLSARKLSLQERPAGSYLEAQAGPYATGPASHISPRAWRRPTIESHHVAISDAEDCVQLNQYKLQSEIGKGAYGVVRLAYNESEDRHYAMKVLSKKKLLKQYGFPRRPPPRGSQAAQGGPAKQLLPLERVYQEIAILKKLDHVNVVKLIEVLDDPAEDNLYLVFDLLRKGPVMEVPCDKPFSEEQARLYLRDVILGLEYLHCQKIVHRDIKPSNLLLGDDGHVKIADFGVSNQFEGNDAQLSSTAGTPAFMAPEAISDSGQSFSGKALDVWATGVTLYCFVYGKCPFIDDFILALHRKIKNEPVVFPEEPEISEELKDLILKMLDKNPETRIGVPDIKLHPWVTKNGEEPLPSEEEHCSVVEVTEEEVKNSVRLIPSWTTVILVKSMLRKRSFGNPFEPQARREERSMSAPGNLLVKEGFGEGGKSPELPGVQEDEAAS
Method in brief: as §1

| SMILES | inhibition at 1 µM [1] | inhibition at 1 µM [2] | inhibition at 1 µM [3] | inhibition at 1 µM [4] | inhibition at 1 µM [5] | inhibition at 1 µM [6] | inhibition at 1 µM [7] | inhibition at 1 µM [8] | inhibition at 1 µM [9] | inhibition at 1 µM [10] | inhibition at 1 µM [11] | inhibition at 1 µM [12] | inhibition at 1 µM [13] | inhibition at 1 µM [14] | inhibition at 1 µM [15] |
| --- | --- | --- | --- | --- | --- | --- | --- | --- | --- | --- | --- | --- | --- | --- | --- |
| C=CC(=O)N1CCCC(c2c(F)cc(C(N)=O)c3[nH]c4c(c23)CCCCC4)C1 (single isomer, unassigned) [Compound 5-6] | -32.3% | 1.1% | 14.6% | -46.6% | -8.9% | -15.3% | 10.6% | -26.4% | -3.3% | 2% | -5.3% | -13.7% | 20% | -19% | 22.2% |
| C=CC(=O)N1CCC[C@@H](c2c(F)cc(C(N)=O)c3[nH]c4c(c23)CCC4)C1 [Compound 10-2, (S)-8-(1-acryloylpiperidin-3-yl)-7-fluoro-1,2,3,4-tetrahydrocyclo-penta[b]indole-5-carboxamide] | -28.2% | -10.7% | -22.6% | -1.3% | -7.2% | -7.7% | 1.6% | -11.1% | 5.7% | 2.4% | -11.1% | -14.4% | -14.8% | -14.9% | 3.7% |
| C=CC(=O)N1CCC[C@@H](c2c(F)cc(C(N)=O)c3[nH]c4c(c23)CC2(CC4)CC2)C1 [Compound 6-2, (S)-5-(1-acryloylpiperidin-3-yl)-6-fluoro-1,2,4,9-tetrahydrospiro[carbazole-3,1′-cyclopropane]-8-carboxamide] | -9.4% | 8.4% | 13.8% | -1.3% | -2.7% | 13.7% | 13.2% | -10.4% | 32.9% | 12.5% | -6.5% | -25.3% | -17% | -11.5% | 5.7% |
